This note sets out measurements from ChEMBL document CHEMBL4261603, “Development of high potent and selective Bcl-2 inhibitors bearing the structural elements of natural product artemisinin” (Eur J Med Chem, 2018).

A value given as a limit tells only on which side of the number the result lay.

Data set [1] addresses Apoptosis regulator Bcl-2 (Homo sapiens, UniProt P10415). Nature of the data set: Inhibition of FAM-labelled Bax binding to Bcl2 (unknown origin) after 30 mins by fluorescence polarization assay.
Another data set addresses Bcl-2-like protein 1 (Homo sapiens, UniProt Q07817). Nature of the data set: Inhibition of FAM-labelled Bax binding to Bcl-xL (unknown origin) after 30 mins by fluorescence polarization assay.
Another data set is filed under the species Homo sapiens. Briefly: Selectivity factor, ratio of IC50 for Bcl-xL (unknown origin) to Bcl2 (unknown origin).
Another data set deals with RS4-11. Briefly: Antiproliferative activity against human RS4:11 cells after 72 hrs by MTS assay. Conditions: RS4-11, 72 h. Type of data set: functional, cell-based.
The next data set concerns Toledo. Briefly: Antiproliferative activity against human Toledo cells after 72 hrs by MTS assay. Type of data set: functional, cell-based.
Data set [2] is described as follows: Apparent permeability across apical to basolateral side in human Caco2 cells at 20 uM. Type of data set: ADME, cell-based. The following applies: Caco-2.
A short description of data set [3]: Apparent permeability across basolateral to apical side in human Caco2 cells at 20 uM. In kind it is ADME, cell-based. Conditions: Caco-2.
Data set [4] can be described thus: Efflux ratio of apparent permeability across […] to apical side in human Caco2 cells at 20 uM. Type of data set: ADME, cell-based. Conditions: Caco-2.
Data set [5] concerns the target Voltage-gated inwardly rectifying potassium channel KCNH2 (Homo sapiens, UniProt Q12809). Briefly: Inhibition of human ERG.

Chain of Bcl-2-like protein 1 (Q07817 whole entry): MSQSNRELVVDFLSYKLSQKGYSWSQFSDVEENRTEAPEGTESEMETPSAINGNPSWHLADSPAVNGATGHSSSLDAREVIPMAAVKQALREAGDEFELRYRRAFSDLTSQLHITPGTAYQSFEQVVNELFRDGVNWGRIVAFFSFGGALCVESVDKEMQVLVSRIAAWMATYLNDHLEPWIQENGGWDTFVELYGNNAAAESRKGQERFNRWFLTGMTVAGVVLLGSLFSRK
Chain of Apoptosis regulator Bcl-2 (P10415 whole entry): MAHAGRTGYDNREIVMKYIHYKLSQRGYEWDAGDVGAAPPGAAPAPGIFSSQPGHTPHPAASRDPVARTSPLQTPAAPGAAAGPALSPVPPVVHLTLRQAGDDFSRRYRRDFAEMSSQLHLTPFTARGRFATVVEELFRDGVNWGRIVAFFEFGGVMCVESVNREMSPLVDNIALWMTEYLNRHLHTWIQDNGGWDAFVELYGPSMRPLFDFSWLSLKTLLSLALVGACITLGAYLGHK
Chain of Voltage-gated inwardly rectifying potassium channel KCNH2 (Q12809 whole entry): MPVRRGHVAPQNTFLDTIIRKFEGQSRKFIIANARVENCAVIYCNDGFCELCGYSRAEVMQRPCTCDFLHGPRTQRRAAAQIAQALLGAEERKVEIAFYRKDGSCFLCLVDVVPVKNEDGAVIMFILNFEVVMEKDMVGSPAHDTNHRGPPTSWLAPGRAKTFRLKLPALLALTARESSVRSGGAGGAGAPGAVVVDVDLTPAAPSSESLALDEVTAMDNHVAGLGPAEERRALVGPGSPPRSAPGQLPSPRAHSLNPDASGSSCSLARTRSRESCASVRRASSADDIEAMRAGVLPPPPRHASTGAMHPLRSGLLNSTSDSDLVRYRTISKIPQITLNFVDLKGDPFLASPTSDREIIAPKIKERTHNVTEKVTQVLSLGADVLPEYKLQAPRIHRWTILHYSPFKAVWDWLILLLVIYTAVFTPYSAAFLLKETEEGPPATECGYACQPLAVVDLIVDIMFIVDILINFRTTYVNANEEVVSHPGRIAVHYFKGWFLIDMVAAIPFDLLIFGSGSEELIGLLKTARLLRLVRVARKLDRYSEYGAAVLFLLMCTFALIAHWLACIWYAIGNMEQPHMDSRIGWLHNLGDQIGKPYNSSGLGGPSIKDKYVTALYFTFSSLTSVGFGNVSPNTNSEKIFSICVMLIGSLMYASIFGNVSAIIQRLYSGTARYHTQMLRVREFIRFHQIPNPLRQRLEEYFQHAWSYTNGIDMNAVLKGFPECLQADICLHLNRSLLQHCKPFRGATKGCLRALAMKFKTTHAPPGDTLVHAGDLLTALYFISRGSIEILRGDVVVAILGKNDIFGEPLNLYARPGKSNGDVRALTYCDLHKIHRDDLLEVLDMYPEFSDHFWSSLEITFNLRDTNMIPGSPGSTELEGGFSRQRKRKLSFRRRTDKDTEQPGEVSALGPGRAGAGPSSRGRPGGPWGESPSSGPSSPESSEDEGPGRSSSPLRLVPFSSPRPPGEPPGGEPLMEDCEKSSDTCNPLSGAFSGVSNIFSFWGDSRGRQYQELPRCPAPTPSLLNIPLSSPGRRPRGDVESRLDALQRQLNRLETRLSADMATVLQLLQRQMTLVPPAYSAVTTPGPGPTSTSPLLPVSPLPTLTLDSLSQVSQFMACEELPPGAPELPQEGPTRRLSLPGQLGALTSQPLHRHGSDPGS

For the compound `C[C@@H]1CC[C@H]2C(CN3CCN(c4ccc(C(=O)NS(=O)(=O)c5ccc(NCC6CCOCC6)c([N+](=O)[O-])c5)c(Oc5cnc6[nH]ccc6c5)c4)CC3)=C(C(F)(F)F)O[C@@H]3O[C@@]4(C)CC[C@@H]1[C@]32OO4`, the IC50 in [1] was 6.2 nM; at Bcl-2-like protein 1, 71.9 nM; in the data set on RS4-11, > 1000 nM; with Toledo, > 1000 nM. Also, the Ratio IC50 in the data set filed under Homo sapiens turned out to be 11.7.
Take `CC1(C)CCC(CN2CCN(c3ccc(C(=O)NS(=O)(=O)c4ccc(NCC5CCOCC5)c([N+](=O)[O-])c4)c(Oc4cnc5[nH]ccc5c4)c3)CC2)=C(c2ccc(Cl)cc2)C1` [VENETOCLAX]: the IC50 was determined as 6 nM in the data set on RS4-11 and 11 nM with Toledo.
On to `C[C@@H]1CC[C@H]2[C@@](C)(O)[C@@H](OCCN3CCN(c4ccc(C(=O)NS(=O)(=O)c5ccc(NCC6CCOCC6)c([N+](=O)[O-])c5)c(Oc5cnc6[nH]ccc6c5)c4)CC3)O[C@@H]3O[C@@]4(C)CC[C@@H]1[C@]32OO4`, for which the IC50 in [1] amounted to 86.5 nM; on Bcl-2-like protein 1 it was 287 nM. Further, the Ratio IC50 in the data set filed under Homo sapiens turned out to be 3.3.
Take `C[C@H]1[C@@H](OCCN2CCN(c3ccc(C(=O)NS(=O)(=O)c4ccc(NCC5CCOCC5)c([N+](=O)[O-])c4)c(Oc4cnc5[nH]ccc5c4)c3)CC2)O[C@@H]2O[C@@]3(C)CC[C@H]4[C@H](C)CC[C@@H]1[C@@]24O3`: the IC50 stood at 2.2 nM in [1], 624 nM at Bcl-2-like protein 1, 4400 nM in the data set with RS4-11 and 9700 nM in the data set on Toledo. In the data set listed under Homo sapiens, the Ratio IC50 was 280.
Turning to `C[C@H]1[C@@H](OCCN2CCN(c3ccc(C(=O)NS(=O)(=O)c4ccc(NCC5CCOCC5)c([N+](=O)[O-])c4)c(Oc4cnc5[nH]ccc5c4)c3)CC2)O[C@@H]2O[C@@]3(C)CC[C@H]4[C@H](C)CC[C@@H]1[C@@]24OO3`, the IC50 in data set [1] is 5 nM; at Bcl-2-like protein 1, 279 nM; in the data set on RS4-11 it was 520 nM; in the data set with Toledo it was 950 nM; in data set [5], > 40000 nM. Besides, the Ratio IC50 in the data set listed under Homo sapiens was 55.3. In addition, the Papp A→B at 20 µM in [2] was 0.21 ×10⁻⁶ cm/s. Also, the Papp B→A at 20 µM in data set [3] turned out to be 6.07 ×10⁻⁶ cm/s. Also, the efflux ratio at 20 µM in data set [4] was determined as 28.8.
Turning to `C[C@H]1[C@@H](CCCN2CCN(c3ccc(C(=O)NS(=O)(=O)c4ccc(NCC5CCOCC5)c([N+](=O)[O-])c4)c(Oc4cnc5[nH]ccc5c4)c3)CC2)O[C@@H]2O[C@@]3(C)CC[C@H]4[C@H](C)CC[C@@H]1[C@@]24OO3`, the IC50 in data set [1] was 1.2 nM; on Bcl-2-like protein 1 it was > 1000 nM; in the data set with RS4-11, 890 nM; in the data set on Toledo it was 880 nM; in [5], > 40000 nM. Besides, the Ratio IC50 in the data set filed under Homo sapiens is > 806.
Regarding `CO[C@H]1OC2O[C@@]3(C)CC[C@H]4[C@H](C)CC[C@@H]([C@]1(C)CC(=O)N1CCN(c5ccc(C(=O)NS(=O)(=O)c6ccc(NCC7CCOCC7)c([N+](=O)[O-])c6)c(Oc6cnc7[nH]ccc7c6)c5)CC1)[C@@]24OO3` (stereo partly drawn), the IC50 in data set [1] is 34.7 nM; at Bcl-2-like protein 1, > 1000 nM. For the same compound, the Ratio IC50 in the data set listed under Homo sapiens is > 28.8.
In the case of `C[C@@H]1CC[C@H]2[C@@H](C)C(OCCN3CCN(c4ccc(C(=O)NS(=O)(=O)c5ccc(NCC6CCOCC6)c([N+](=O)[O-])c5)c(Oc5cnc6[nH]ccc6c5)c4)C[C@@H]3CO)O[C@@H]3O[C@@]4(C)CC[C@@H]1[C@]32OO4` (stereo partly drawn), the IC50 was 28.7 nM in data set [1], > 1000 nM at Bcl-2-like protein 1, > 1000 nM in the data set on RS4-11 and > 1000 nM in the data set on Toledo. Besides, the Ratio IC50 in the data set listed under Homo sapiens amounted to 34.8.
As for `C[C@H]1[C@H](N(C)CCN2CCN(c3ccc(C(=O)NS(=O)(=O)c4ccc(NCC5CCOCC5)c([N+](=O)[O-])c4)c(Oc4cnc5[nH]ccc5c4)c3)CC2)O[C@@H]2O[C@@]3(C)CC[C@H]4[C@H](C)CC[C@@H]1[C@@]24OO3`, the IC50 in [1] was 16.7 nM; at Bcl-2-like protein 1, > 1000 nM. Also, the Ratio IC50 in the data set listed under Homo sapiens was > 59.9.
`C[C@H]1[C@@H](CC(=O)N2CCN(c3ccc(C(=O)NS(=O)(=O)c4ccc(NCC5CCOCC5)c([N+](=O)[O-])c4)c(Oc4cnc5[nH]ccc5c4)c3)CC2)O[C@@H]2O[C@]3(C)O[C@]24[C@H]1CC[C@@H](C)[C@@H]4C[C@H]3O`: the IC50 in data set [1] is 50.1 nM; on Bcl-2-like protein 1 it was 765 nM; with RS4-11, > 1000 nM; in the data set with Toledo, > 1000 nM. The Ratio IC50 in the data set listed under Homo sapiens stood at 15.3.
Consider `C[C@H]1[C@@H](OCCN2CCN(c3ccc(C(=O)NS(=O)(=O)c4ccc(NCC5CCOCC5)c([N+](=O)[O-])c4)c(Oc4cnc5[nH]ccc5c4)c3)CC2)O[C@@H]2O[C@]3(C)O[C@]24[C@H]1CC[C@@H](C)[C@@H]4C[C@H]3O`, for which the half-maximal inhibitory concentration (IC50) was 31.9 nM in data set [1] and > 1000 nM on Bcl-2-like protein 1. The Ratio IC50 in the data set listed under Homo sapiens is > 31.3.
For the compound `C[C@@H]1CC[C@H]2[C@@H](C)C(OCCNC3CCN(c4ccc(C(=O)NS(=O)(=O)c5ccc(NCC6CCOCC6)c([N+](=O)[O-])c5)c(Oc5cnc6[nH]ccc6c5)c4)CC3)O[C@@H]3O[C@@]4(C)CC[C@@H]1[C@]32OO4` (stereo partly drawn), the IC50 in data set [1] was 1.9 nM; on Bcl-2-like protein 1, > 1000 nM; in the data set with RS4-11, > 1000 nM; in the data set with Toledo, > 1000 nM. The Ratio IC50 in the data set filed under Homo sapiens is > 526.
Regarding `C[C@H]1[C@@H](CCN2CCN(c3ccc(C(=O)NS(=O)(=O)c4ccc(NCC5CCOCC5)c([N+](=O)[O-])c4)c(Oc4cnc5[nH]ccc5c4)c3)CC2)O[C@@H]2O[C@@]3(C)CC[C@H]4[C@H](C)CC[C@@H]1[C@@]24O3`, the IC50 in data set [1] is 1.8 nM; at Bcl-2-like protein 1, > 1000 nM; in the data set on RS4-11, 1300 nM; in the data set on Toledo it was 2600 nM. The Ratio IC50 in the data set listed under Homo sapiens was > 546.
`C[C@@H]1CC[C@@H]2[C@]34OO[C@](C)(CC[C@@H]13)O[C@H]4O[C@]2(C)C(=O)N1CCN(c2ccc(C(=O)NS(=O)(=O)c3ccc(NCC4CCOCC4)c([N+](=O)[O-])c3)c(Oc3cnc4[nH]ccc4c3)c2)CC1`: the IC50 came to 13 nM in [1] and 512 nM on Bcl-2-like protein 1. For the same compound, in the data set listed under Homo sapiens, the Ratio IC50 was 39.2.
As to `C[C@@H]1CC[C@H]2C(CN3CCN(c4ccc(C(=O)NS(=O)(=O)c5ccc(NCC6CCOCC6)c([N+](=O)[O-])c5)c(Oc5cnc6[nH]ccc6c5)c4)CC3)=C(C(F)(F)F)O[C@@H]3O[C@@]4(C)CC[C@@H]1[C@]32O4`, the IC50 in data set [1] is 2.8 nM; on Bcl-2-like protein 1, 970 nM; in the data set on RS4-11, 1900 nM; with Toledo it was 7400 nM. Further, in the data set listed under Homo sapiens, the Ratio IC50 turned out to be 343.
On the same counts, the results for `C[C@@H]1CC[C@H]2[C@@H](C)C(OCCN3CCN(c4ccc(C(=O)NS(=O)(=O)c5ccc(NCC6CCOCC6)c([N+](=O)[O-])c5)c(Oc5cnc6[nH]ccc6c5)c4)C[C@H]3CO)O[C@@H]3O[C@@]4(C)CC[C@@H]1[C@]32OO4` (stereo partly drawn) are 67.1 nM, > 1000 nM, > 1000 nM, > 1000 nM and 14.9.
In the case of `C[C@H]1[C@@H](CC(=O)N2CCN(c3ccc(C(=O)NS(=O)(=O)c4ccc(NCC5CCOCC5)c([N+](=O)[O-])c4)c(Oc4cnc5[nH]ccc5c4)c3)CC2)O[C@@H]2O[C@@]3(C)CC[C@H]4[C@H](C)CC[C@@H]1[C@@]24O3`, the IC50 in [1] was 3.5 nM; at Bcl-2-like protein 1 it was 270 nM; with RS4-11 it was > 1000 nM; in the data set on Toledo, > 1000 nM. In addition, the Ratio IC50 in the data set listed under Homo sapiens turned out to be 77.2.
On to `C[C@H]1[C@@H](CCN2CCN(c3ccc(C(=O)NS(=O)(=O)c4ccc(NCC5CCOCC5)c([N+](=O)[O-])c4)c(Oc4cnc5[nH]ccc5c4)c3)CC2)O[C@@H]2O[C@@]3(C)CC[C@H]4[C@H](C)CC[C@@H]1[C@@]24OO3`, for which the IC50 is 9.7 nM in data set [1] and > 1000 nM on Bcl-2-like protein 1. The Ratio IC50 in the data set filed under Homo sapiens was > 103.
The like results for `C[C@H]1[C@@H](CC(=O)N2CCN(c3ccc(C(=O)NS(=O)(=O)c4ccc(NCC5CCOCC5)c([N+](=O)[O-])c4)c(Oc4cnc5[nH]ccc5c4)c3)CC2)O[C@@H]2O[C@@]3(C)CC[C@H]4[C@H](C)CC[C@@H]1[C@@]24OO3` were, in that order, 11.9 nM, 109 nM and 9.16.
